Test results taken from patent EP0318620A1, “Herbicidal sulfonamides” (E.I. DU PONT DE NEMOURS AND COMPANY, priority 1987, dated 1989).

Experiments:
morningglory = assay: Test A greenhouse herbicide test, pre- and postemergence; type: in vivo, Ipomoea spp.; settings: rated after sixteen days
Excerpt: (§1) Seeds of crabgrass (Digitaria spp.), barnyardgrass (Echinochloa crusgalli), cheatgrass (Bromus Secalinus), giant foxtail (Setaria faberii), wild oats (Avena fatua), velvetleaf (Abutilon theophrasti), morningglory (Ipomoea spp. , cocklebur (Xanthium pensylvanicum). sorghum, corn, barley, soybean, sugarbeet, cotton, rice, wheat and purple nutsedge (Cyperus rotundus) tubers were planted and treated preemergence with the test chemicals dissolved in a non-phytotoxic solvent. At the same time, these crop and weed species were treated with a soil/foliage application. At the time of treatment, the plants ranged in height from 2 to 18 cm. Treated plants and controls were maintained in a greenhouse for sixteen days, after which all species were compared to controls and visually rated for response to treatment. The ratings, summarized in Table A, are based on a numerical scale extending from 0 = no injury, to 10 = complete kill. The accompanying descriptive symbols have the following meanings: • B = burn; • C = chlorosis/necrosis; • D = defoliation; • E = emergence inhibition; • G = growth retardation; • H = formative effect; • U = unusual pigmentation; • X = axillary stimulation; • S = albinism; and • 6Y = abscised buds or flowers.

cocklebur = assay: as above; type: in vivo, Xanthium pensylvanicum; settings: POSTEMERGENCE, rated after sixteen days
Excerpt: as §1

purple nutsedge = assay: as above; type: in vivo, Cyperus rotundus; settings: rated after sixteen days
Excerpt: as §1

crabgrass [1] = assay: as above; type: in vivo, Digitaria spp.; settings: PREEMERGENCE; RATE 0.01 KG/HA; rated after sixteen days
Excerpt: as §1

barnyardgrass = assay: as above; type: in vivo, Echinochloa crusgalli; settings: rated after sixteen days
Excerpt: as §1

corn [2] = assay: as above; type: in vivo; settings: rated after sixteen days
Excerpt: as §1

cotton = assay: as above; type: in vivo; settings: rated after sixteen days
Excerpt: as §1

rice [3] = assay: as above; type: in vivo; settings: rated after sixteen days
Excerpt: as §1

sorghum = assay: as above; type: in vivo; settings: POSTEMERGENCE; RATE 0.05 KG/HA; rated after sixteen days
Excerpt: as §1

soybean = assay: as above; type: in vivo; settings: rated after sixteen days
Excerpt: as §1

sugarbeet = assay: as above; type: in vivo; settings: POSTEMERGENCE, rated after sixteen days
Excerpt: as §1

cheatgrass = assay: as above; type: in vivo, Bromus Secalinus; settings: rated after sixteen days
Excerpt: as §1

giant foxtail = assay: as above; type: in vivo, Setaria faberii; settings: rated after sixteen days
Excerpt: as §1

nutsedge = assay: Test B pan test in Sassafras sandy loam soil, pre- and postemergence; type: in vivo, Cyperus rotundus; settings: scale 0 to 100
Excerpt: (§2) Three round pans (25 cm diameter by 12.5 cm deep) were filled with Sassafras sandy loam soil. One pan was planted with nutsedge (Cyperus rotundus) tubers, crabgrass (Digitaria sanguinalis), sicklepod (Cassia obtusifolia), jimsonweed (Datura stramonium), velvetleaf (Abutilon theophrasti), lambsquarters (Chenopodim album), rice (Oryza sativa) and teaweed (Sida spinosa). The second pot was planted with green foxtail (Setaria viridis), cocklebur (Xantium pensyivanicum), morningglory (lpomoea hederacea), cotton (Gossypium hirsutum), johnsongrass (Sorghum halepense), barnyardgrass (Echinochloa crusgalli), corn (Zea mays), soybean (Glycine max) and giant foxtail (Setaria faberi). The third pot was planted with wheat (Triticum aestivum), barley (Hordeum vulgare), wild buckwheat (Polgonum convolvulus L.), cheatgrass (Bromus secalinus L.), sugarbeet (Beta vulgaris), wild oats (Avena fatua), viola (Viola arvensis), blackgrass (Alopecurus myosuroides), and rape (Brassica napus). The plants were grown for approximately fourteen days, then sprayed postemergence with the chemicals dissolved in a non-phytotoxic solvent.
(§3) Three round pans (25 cm diameter by 12.5 cm deep) were filled with Sassafras sandy loam soil. One pan was planted with nutsedge tubers, crabgrass, sicklepod, jimsonweed, velvetleaf, lambsquarters, rice and teaweed. The second pot was planted with green foxtail, cocklebur, morningglory, cottom, johnsongrass, . barnyardgrass, corn, soybean and giant foxtail. The third pot was planted with wheat, barley, wild buckwheat, cheatgrass, sugarbeet, wild oat, viola, blackgrass and rape. The three pans were sprayed preemer gence with the chemicals dissolved in a non-phytotoxic solvent.
(§4) Treated plants and controls were maintained in the greenhouse for 24 days, then all rated plants were compared to controls and visually rated for plant response.
(§5) A dash (-) response means no test.

crabgrass [4] = assay: as above; type: in vivo, Digitaria sanguinalis; settings: scale 0 to 100
Excerpt: as §2, §3, §4, §5

rice [5] = assay: as above; type: in vivo, Oryza sativa; settings: scale 0 to 100
Excerpt: as §2, §3, §4, §5

corn [6] = assay: as above; type: in vivo, Zea mays; settings: scale 0 to 100
Excerpt: as §2, §3, §4, §5

wild buckwheat = assay: as above; type: in vivo, Polgonum convolvulus L.; settings: scale 0 to 100
Excerpt: as §2, §3, §4, §5

CCOC(=O)c1c(CC#N)cccc1S(=O)(=O)NC(=O)Nc1nc(OC)cc(OC)n1 [Compound 3, 2-(cyanomethyl)-6 [[(4,6-dimethoxypyrimidin-2-yl)-aminocarbonyl]aminosulfonyl]benzoic acid, ethyl ester]
MORNING GLORY visual rating of response to treatment (morningglory; POSTEMERGENCE, RATE 0.01 KG/HA): 10C | MORNING GLORY visual rating of response to treatment (morningglory; POSTEMERGENCE, RATE 0.05 KG/HA): 10C | MORNING GLORY visual rating of response to treatment (morningglory; PREEMERGENCE, RATE 0.01 KG/HA): 2G | MORNING GLORY visual rating of response to treatment (morningglory; PREEMERGENCE, RATE 0.05 KG/HA): 9G | COCKLEBUR visual rating of response to treatment (cocklebur; RATE 0.01 KG/HA): 10C | COCKLEBUR visual rating of response to treatment (cocklebur; RATE 0.05 KG/HA): 10C | NUTSEDGE visual rating of response to treatment (purple nutsedge; POSTEMERGENCE, RATE 0.01 KG/HA): 10C | NUTSEDGE visual rating of response to treatment (purple nutsedge; POSTEMERGENCE, RATE 0.05 KG/HA): 10C | NUTSEDGE visual rating of response to treatment (purple nutsedge; PREEMERGENCE, RATE 0.01 KG/HA): 4G | NUTSEDGE visual rating of response to treatment (purple nutsedge; PREEMERGENCE, RATE 0.05 KG/HA): 9G | CRABGRASS visual rating of response to treatment (crabgrass [1]): 4G | BARNYARD GRASS visual rating of response to treatment (barnyardgrass; POSTEMERGENCE, RATE 0.01 KG/HA): 9C | BARNYARD GRASS visual rating of response to treatment (barnyardgrass; POSTEMERGENCE, RATE 0.05 KG/HA): 10C | BARNYARD GRASS visual rating of response to treatment (barnyardgrass; PREEMERGENCE, RATE 0.01 KG/HA): 2G | CORN visual rating of response to treatment (corn [2]; POSTEMERGENCE, RATE 0.01 KG/HA): 10C | CORN visual rating of response to treatment (corn [2]; PREEMERGENCE, RATE 0.05 KG/HA): 9H | COTTON visual rating of response to treatment (cotton; POSTEMERGENCE, RATE 0.01 KG/HA): 9C | COTTON visual rating of response to treatment (cotton; POSTEMERGENCE, RATE 0.05 KG/HA): 10C | COTTON visual rating of response to treatment (cotton; PREEMERGENCE, RATE 0.01 KG/HA): 3G | RICE visual rating of response to treatment (rice [3]; POSTEMERGENCE, RATE 0.01 KG/HA): 9C | RICE visual rating of response to treatment (rice [3]; POSTEMERGENCE, RATE 0.05 KG/HA): 9C | RICE visual rating of response to treatment (rice [3]; PREEMERGENCE, RATE 0.01 KG/HA): 3G | SORGHUM visual rating of response to treatment (sorghum): 9C | SOYBEAN visual rating of response to treatment (soybean; POSTEMERGENCE, RATE 0.05 KG/HA): 9C | SOYBEAN visual rating of response to treatment (soybean; PREEMERGENCE, RATE 0.01 KG/HA): 5G | SUGAR BEETS visual rating of response to treatment (sugarbeet; RATE 0.01 KG/HA): 10C | SUGAR BEETS visual rating of response to treatment (sugarbeet; RATE 0.05 KG/HA): 10C | CHEATGRASS visual rating of response to treatment (cheatgrass; POSTEMERGENCE, RATE 0.01 KG/HA): 6G | CHEATGRASS visual rating of response to treatment (cheatgrass; PREEMERGENCE, RATE 0.01 KG/HA): 5G | CHEATGRASS visual rating of response to treatment (cheatgrass; PREEMERGENCE, RATE 0.05 KG/HA): 8H | GIANT FOXTAIL visual rating of response to treatment (giant foxtail; POSTEMERGENCE, RATE 0.01 KG/HA): 9C | GIANT FOXTAIL visual rating of response to treatment (giant foxtail; POSTEMERGENCE, RATE 0.05 KG/HA): 10C | GIANT FOXTAIL visual rating of response to treatment (giant foxtail; PREEMERGENCE, RATE 0.01 KG/HA): 5G | NUTSEDGE response rating (nutsedge; POSTEMERGENCE, RATE 0001 G/HA): 100 | NUTSEDGE response rating (nutsedge; POSTEMERGENCE, RATE 0004 G/HA): 100 | NUTSEDGE response rating (nutsedge; POSTEMERGENCE, RATE 0016 G/HA): 100 | NUTSEDGE response rating (nutsedge; POSTEMERGENCE, RATE 0062 G/HA): 100 | NUTSEDGE response rating (nutsedge; PREEMERGENCE, RATE 0004 G/HA): 0 | NUTSEDGE response rating (nutsedge; PREEMERGENCE, RATE 0016 G/HA): 30 | NUTSEDGE response rating (nutsedge; PREEMERGENCE, RATE 0062 G/HA): 70 | CRABGRASS response rating (crabgrass [4]; POSTEMERGENCE, RATE 0001 G/HA): 0 | CRABGRASS response rating (crabgrass [4]; POSTEMERGENCE, RATE 0004 G/HA): 30 | CRABGRASS response rating (crabgrass [4]; POSTEMERGENCE, RATE 0016 G/HA): 50 | CRABGRASS response rating (crabgrass [4]; POSTEMERGENCE, RATE 0062 G/HA): 70 | CRABGRASS response rating (crabgrass [4]; PREEMERGENCE, RATE 0004 G/HA): 0 | CRABGRASS response rating (crabgrass [4]; PREEMERGENCE, RATE 0016 G/HA): 30 | CRABGRASS response rating (crabgrass [4]; PREEMERGENCE, RATE 0062 G/HA): 70 | RICE response rating (rice [5]; POSTEMERGENCE, RATE 0001 G/HA): 60 | RICE response rating (rice [5]; POSTEMERGENCE, RATE 0004 G/HA): 90 | RICE response rating (rice [5]; POSTEMERGENCE, RATE 0016 G/HA): 100 | RICE response rating (rice [5]; POSTEMERGENCE, RATE 0062 G/HA): 100 | RICE response rating (rice [5]; PREEMERGENCE, RATE 0004 G/HA): 0 | RICE response rating (rice [5]; PREEMERGENCE, RATE 0016 G/HA): 30 | RICE response rating (rice [5]; PREEMERGENCE, RATE 0062 G/HA): 80 | CORN response rating (corn [6]; POSTEMERGENCE, RATE 0001 G/HA): 90 | CORN response rating (corn [6]; POSTEMERGENCE, RATE 0004 G/HA): 100 | CORN response rating (corn [6]; POSTEMERGENCE, RATE 0016 G/HA): 100 | CORN response rating (corn [6]; POSTEMERGENCE, RATE 0062 G/HA): 100 | CORN response rating (corn [6]; PREEMERGENCE, RATE 0004 G/HA): 0 | CORN response rating (corn [6]; PREEMERGENCE, RATE 0016 G/HA): 30 | CORN response rating (corn [6]; PREEMERGENCE, RATE 0062 G/HA): 60 | WILD BUCKWHEAT response rating (wild buckwheat; POSTEMERGENCE, RATE 0001 G/HA): 30 | WILD BUCKWHEAT response rating (wild buckwheat; POSTEMERGENCE, RATE 0004 G/HA): 60 | WILD BUCKWHEAT response rating (wild buckwheat; POSTEMERGENCE, RATE 0016 G/HA): 90 | WILD BUCKWHEAT response rating (wild buckwheat; POSTEMERGENCE, RATE 0062 G/HA): 100 | WILD BUCKWHEAT response rating (wild buckwheat; PREEMERGENCE, RATE 0004 G/HA): 50 | WILD BUCKWHEAT response rating (wild buckwheat; PREEMERGENCE, RATE 0016 G/HA): 70 | WILD BUCKWHEAT response rating (wild buckwheat; PREEMERGENCE, RATE 0062 G/HA): 90
